Values quoted from earlier work, collected in patent US20070003615A1, “Nanoparticulate clopidogrel and aspirin combination formulations” (Elan Pharma International Limited, priority 2005, published 2007).
Counter-ions that a name gives are not always drawn. Like-named read-outs stand apart in the source and are kept apart here.

Legend:
[1] = dry air versus contact with moisture
[2] = in vivo
[3] = not given; remark: listed apart in the source

CC(=O)Oc1ccccc1C(=O)O [Aspirin, 2-acetoxybenzoic acid]
stability in air / moisture [1]: stable in dry air, but gradually hydrolyses in contact with moisture

COC(=O)[C@H](c1ccccc1Cl)N1CCc2sccc2C1 [Clopidogrel bisulfate, methyl (+)-(S)-α-(2-chorophenyl)-6,7-dihydrothieno[3,2-c]pyridine-5(4H)-acetate sulfate (1:1)]
gastric irritation (esophagus and stomach) [2]: significant gastric irritation
solubility in ethyl ether (ethyl ether): practically insoluble
solubility in methanol (methanol): dissolves freely
solubility in methylene chloride (methylene chloride): dissolves sparingly
solubility at pH 1.0 (pH 1.0): freely soluble
solubility in water (water at neutral pH): practically insoluble
rate of combined end point of cardiovascular death, MI, or stroke (and with refractory ischemia) ([3]; patients with acute coronary syndrome): decrease the rate
rate of combined end point of new ischemic stroke, new MI, and other vascular death ([3]; recent MI, recent stroke, or established arterial disease): reduce the rate

COC(=O)[C@H](c1ccccc1Cl)N1CCc2sccc2C1 [clopidogrel]
solubility in water (water, pH not stated): practically insoluble
